Type in all cases: cell-based
The test system of assay [1] is multidrug-resistant (MDR) K. pneumoniae isolates (n = 102). Kind of assay: MIC by microdilution, clinical isolates. The following applies: for S (%), susceptible isolates: CLSI criteria, tigecycline US FDA criteria. How it is done: (§1) The in vitro activity of representative antibacterial aminoglycoside compounds against a collection of 102 K. pneumoniae clinical isolates collected from January 2006 to October 2007 at the University of Pittsburgh Medical Center, and three Cleveland institutions including University Hospitals Case Medical Center, the Cleveland Clinic, and the Louis Stokes Department of Veterans Affairs Medical Center was analyzed. The 102 K. pneumoniae isolates were selected based on a multidrug-resistant (MDR) phenotype (i.e., resistance to >3 antibiotic classes). Twenty-five isolates were KPC carbapenemase producing (KPC-Kp), and were part of a previous study where the β-lactamase background and clonality were characterized (see Endimiani, A., A. M. Hujer, F. Perez, C. R. Bethel, K. M. Hujer, J. Kroeger, M. Oethinger, D. L. Paterson, M. D. Adams, M. R. Jacobs, D. J. Diekema, G. S. Hall, S. G. Jenkins, L. B. Rice, F. C. Tenover, and R. A. Bonomo. 2009. Characterization of blaKPC-containing Klebsiella pneumoniae isolates detected in different institutions in the Eastern USA. J Antimicrob Chemother 63:427-37).
(§2) Minimum inhibitory concentrations (MICs) were performed by microdilution method using cation-adjusted Mueller-Hinton broth, according to the Clinical and Laboratory Standards Institute (CLSI) criteria (see CLSI. 2006. Methods for dilution antimicrobial susceptibility tests for bacteria that grow aerobically; approved standard-Seventh edition. Clinical and Laboratory Standard Institute, Wayne, Pa. CLSI document M7-A7). These MIC assays were conducted following the same protocol as set forth in Example 110. […] The following ATCC control strains were used: Escherichia coli ATCC 25922, Pseudomonas aeruginosa ATCC 27853, and K. pneumoniae ATCC 700603.
For orientation: Dilution methods test growth across graded concentrations, often in twofold steps.

In assay [2] the test system is K. pneumoniae producing KPC (n = 25). Kind of assay: MIC by microdilution, clinical isolates. As to conditions: for S (%), susceptible isolates: CLSI criteria, tigecycline US FDA criteria. How it is done:
as §1, §2

The subject of assay [3] is P. aeruginosa ATCC 27853 (APAE001). Kind of assay: MIC assay, CLSI broth microdilution. As to conditions: Pseudomonas aeruginosa, ATCC27853, read-out: MIC APAE001. The gist of the method:
(§3)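 Broth microdilution per CLSI M7-A7, with serial two-fold compound dilutions in Mueller Hinton Broth mixed 1:1 with inoculum. Colonies from a previous-day agar plate were suspended in saline to a final 5×10^5 CFU/mL. Plates were incubated 20 hours at 35° C. in ambient air.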

Assay [4] relates to E. coli ATCC 25922 (AECO001). Kind of assay: MIC assay, CLSI broth microdilution. The following applies: Escherichia coli, ATCC25922, read-out: MIC AECO001. Put shortly: as §3
Setting [5] is: Klebsiella pneumoniae, Total MDR K. pneumoniae isolates (n = 102), read-out: MIC50.
The mark [6] stands for this setting: Klebsiella pneumoniae, Total MDR K. pneumoniae isolates (n = 102), read-out: MIC90.
The mark [7] stands for this setting: Klebsiella pneumoniae, K. pneumoniae producing KPC (n = 25), read-out: MIC50.
[8] abbreviates: Klebsiella pneumoniae, K. pneumoniae producing KPC (n = 25), read-out: MIC90.
Where [9] appears, read: Total MDR K. pneumoniae isolates (n = 102).
Where [10] appears, read: K. pneumoniae producing KPC (n = 25).

In brackets after ≈: the same amount, converted by molar mass. Where two headings read alike, the source gives them in different places.

The MIC50 is an inhibitory concentration at the 50% level, which refers to growth in some studies and to a panel of isolates in others. For orientation: MIC90 means the lowest concentration that inhibits either 90% of growth or 90% of the strains tested, depending on the study.

In the case of `NCC[C@H](O)C(=O)N[C@@H]1C[C@H](N)[C@@H](O[C@H]2O[C@H](CN)CC[C@H]2N)[C@H](O)[C@H]1O[C@H]1O[C@H](CO)[C@@H](O)[C@H](N)[C@H]1O` [Arbekacin, arbekacin], the MIC50 turned out to be 4 µg/mL (≈ 7.24 µM) in assay [1] (setting [5]) and 8 µg/mL (≈ 14.5 µM) in assay [2] (setting [7]). The MIC90 in assay [1] (setting [6]) and in assay [2] (setting [8]) was 16 µg/mL (≈ 29 µM) in each case. Further, in assay [2] (Klebsiella pneumoniae, all KPC-Kp strains, read-out: MICs of all strains), the MIC is < 32 µg/mL.

`CC(C)(O/N=C(\C(=O)N[C@@H]1C(=O)N2C(C(=O)[O-])=C(C[n+]3ccccc3)CS[C@H]12)c1csc(N)n1)C(=O)O` [Ceftazidime, ceftazidime]: the MIC50 in assay [1] (setting [5]) and in assay [2] (setting [7]) was > 32 µg/mL each time. For the same molecule, the results for the MIC90 in assay [1] (setting [6]), in assay [1] (setting [9]) and in assay [2] (setting [8]) were > 32 µg/mL, >32 µg/mL and > 32 µg/mL, respectively. Besides, the figures for the “S (%), susceptible isolates” value in assay [1] (setting [9]) and in assay [2] (setting [10]) were 9.8% and 0.0%, respectively.

Take `CN[C@@H]1[C@@H](O)[C@@H](O[C@@H]2[C@@H](O)[C@H](O[C@H]3OC(CN)=CC[C@H]3NC(=O)CC3CNCCO3)[C@@H](N)C[C@H]2NC(=O)[C@@H](O)CCN)OC[C@]1(C)O` (stereo partly drawn) [Example 92, 2′-(Morpholin-2-yl-acetyl)-1-(4-amino-2(S)-hydroxy-butyryl)-sisomicin]: the figures for the MIC in assay [3] and in assay [4] were > 16 µg/mL and < 1 µg/mL, respectively.

For `CN[C@@H]1[C@@H](O)[C@@H](O[C@@H]2[C@@H](O)[C@H](O[C@H]3OC(CN)=CC[C@H]3NS(=O)(=O)CCN)[C@@H](N)C[C@H]2NC(=O)[C@@H](O)CCN)OC[C@]1(C)O` [Example 93, 2′-(2-Amino-ethyl-sulfonamide)-1-(4-amino-2(S)-hydroxy-butyryl)-sisomicin], the MIC in assay [3] was 1 to 16 µg/mL (≈ 1.52 to 24.4 µM); in assay [4] it was < 1 µg/mL.

As to `CN[C@@H]1[C@@H](O)[C@@H](O[C@@H]2[C@@H](O)[C@H](O[C@H]3OC(CN)=CC[C@H]3NCC(C)(C)CN(C)C)[C@@H](N)C[C@H]2NC(=O)[C@@H](O)CCN)OC[C@]1(C)O` [Example 94, 2′-(N,N-Dimethyl-2,2-dimethyl-3-amino-propyl)-1-(4-amino-2(S)-hydroxy-butyryl)-sisomicin], the MIC in assay [3] was > 16 µg/mL; in assay [4] it was 1 to 16 µg/mL (≈ 1.51 to 24.2 µM).

With `CN[C@@H]1[C@@H](O)[C@@H](O[C@@H]2[C@@H](O)[C@H](O[C@H]3OC(CN)=CC[C@H]3NC[C@H](C)N)[C@@H](N)C[C@H]2NC(=O)[C@@H](O)CCN)OC[C@]1(C)O` [Example 95, 2′-(2(S)-Amino-propyl)-1-(4-amino-2(S)-hydroxy-butyryl)-sisomicin], the figures for the MIC in assay [3] and in assay [4] were > 16 µg/mL and < 1 µg/mL, respectively.

On to `CN[C@@H]1[C@@H](O)[C@@H](O[C@@H]2[C@@H](O)[C@H](O[C@H]3OC(CN)=CC[C@H]3NCC(N)CO)[C@@H](N)C[C@H]2NC(=O)[C@@H](O)CCN)OC[C@]1(C)O` (stereo partly drawn) [Example 97, 2′-(2-Amino-propanol)-1-(4-amino-2(S)-hydroxy-butyryl)-sisomicin], for which the MIC was 1 to 16 µg/mL (≈ 1.61 to 25.7 µM) in assay [3] and < 1 µg/mL in assay [4].

For `CN[C@@H]1[C@@H](O)[C@@H](O[C@@H]2[C@@H](O)[C@H](O[C@H]3OC(CN)=CC[C@H]3NCCO)[C@@H](N)C[C@H]2NC(=O)[C@@H](O)CCN)OC[C@]1(C)O` [Example 98, 2′-(2-Hydroxy-ethyl)-1-(4-amino-2(S)-hydroxy-butyryl)-sisomicin], the MIC in assay [3] and in assay [4] was 1 to 16 µg/mL (≈ 1.69 to 27 µM) throughout.

Consider `CN[C@@H]1[C@@H](O)[C@@H](O[C@@H]2[C@@H](O)[C@H](O[C@H]3OC(CN)=CC[C@H]3NC(=O)C(N)CCCN)[C@@H](N)C[C@H]2NC(=O)[C@@H](O)CCN)OC[C@]1(C)O` (stereo partly drawn) [Example 99, 2′-(2,5-Diamino-pentoyl)-1-(4-amino-2(S)-hydroxy-butyryl)-sisomicin], for which the MIC in assay [3] and in assay [4] was 1 to 16 µg/mL (≈ 1.51 to 24.1 µM) each time.

Consider `CN[C@@H]1[C@@H](O)[C@@H](O[C@@H]2[C@@H](O)[C@H](O[C@H]3OC(CN)=CC[C@H]3NCC(O)CO)[C@@H](N)C[C@H]2NC(=O)[C@@H](O)CCN)OC[C@]1(C)O` (stereo partly drawn) [Example 100, 2′-(2-Hydroxy-propanol)-1-(4-amino-2(S)-hydroxy-butyryl)-sisomicin], for which the MIC in assay [3] was > 16 µg/mL; in assay [4] it was 1 to 16 µg/mL (≈ 1.61 to 25.7 µM).

Take `CN[C@@H]1[C@@H](O)[C@@H](O[C@@H]2[C@@H](O)[C@H](O[C@H]3OC(CN)=CC[C@H]3NCC(O)CN)[C@@H](N)C[C@H]2NC(=O)[C@@H](O)CCN)OC[C@]1(C)O` (stereo partly drawn) [Example 101, 2′-(2-Hydroxy-3-amino-propyl)-1-(4-amino-2(S)-hydroxy-butyryl)-sisomicin]: the MIC in assay [3] is 1 to 16 µg/mL (≈ 1.61 to 25.7 µM); in assay [4], < 1 µg/mL.

For the molecule `CN[C@@H]1[C@@H](O)[C@@H](O[C@@H]2[C@@H](O)[C@H](O[C@H]3OC(CN)=CC[C@H]3NCCCCN)[C@@H](N)C[C@H]2NC(=O)[C@@H](O)CCN)OC[C@]1(C)O` [Example 102, 2′-(4-Amino-butyl)-1-(4-amino-2(S)-hydroxy-butyryl)-sisomicin], the MIC in assay [3] is 1 to 16 µg/mL (≈ 1.61 to 25.8 µM); in assay [4], < 1 µg/mL.

Turning to `CN[C@@H]1[C@@H](O)[C@@H](O[C@@H]2[C@@H](O)[C@H](O[C@H]3OC(CN)=CC[C@H]3NC[C@H]3C[C@H](N)C3)[C@@H](N)C[C@H]2NC(=O)[C@@H](O)CCN)OC[C@]1(C)O` [Example 104, 2′-(Methyl-trans-3-amino-cyclobutyl)-1-(4-amino-2(S)-hydroxy-butyryl)-sisomicin], the MIC in assay [3] is 1 to 16 µg/mL (≈ 1.58 to 25.3 µM); in assay [4], < 1 µg/mL.

With `CN[C@@H]1[C@@H](O)[C@@H](O[C@@H]2[C@@H](O)[C@H](O[C@H]3OC(CNC(=N)N)=CC[C@H]3NC(=N)N)[C@@H](N)C[C@H]2N)OC[C@]1(C)O` [Example 105, 6′,2′-bis-Guanidinium-sisomicin], the MIC in assay [3] and in assay [4] was > 16 µg/mL each time.

`CN[C@@H]1[C@@H](O)[C@@H](O[C@@H]2[C@@H](O)[C@H](O[C@H]3OC(CNCCO)=CC[C@H]3NC(=N)N)[C@@H](N)C[C@H]2N)OC[C@]1(C)O` [Example 106, 6′-(2-Hydroxy-ethyl)-2′-guanidinium-sisomicin]: the MIC in assay [3] was 1 to 16 µg/mL (≈ 1.87 to 30 µM); in assay [4], < 1 µg/mL.

Regarding `CN[C@@H]1[C@@H](O)[C@@H](O[C@@H]2[C@@H](O)[C@H](O[C@H]3OC(CNC[C@H]4C[C@H](N)C4)=CC[C@H]3NC(=N)N)[C@@H](N)C[C@H]2N)OC[C@]1(C)O` [Example 107, 6′-(Methyl-trans-3-amino-cyclobutyl)-2′-guanidinium-sisomicin], the MIC in assay [3] was < 1 µg/mL; in assay [4] it was 1 to 16 µg/mL (≈ 1.75 to 27.9 µM).

In the case of `CNCC1=CC[C@@H](NC(=N)N)[C@@H](O[C@H]2[C@H](O)[C@@H](O[C@H]3OC[C@](C)(O)[C@H](NC)[C@H]3O)[C@H](N)C[C@@H]2N)O1` [Example 108, 6′-Methyl-2′-guanidinium-sisomicin], the figures for the MIC in assay [3] and in assay [4] were 1 to 16 µg/mL (≈ 1.99 to 31.8 µM) and < 1 µg/mL, respectively.

With `CN(C)c1cc(NC(=O)CNC(C)(C)C)c(O)c2c1C[C@H]1C[C@H]3[C@H](N(C)C)C(O)=C(C(N)=O)C(=O)[C@@]3(O)C(O)=C1C2=O` [Tigecycline, tigecycline], the MIC50 in assay [1] (Klebsiella pneumoniae) and in assay [2] (Klebsiella pneumoniae) was 1 µg/mL (≈ 1.71 µM) each time. Moreover, the MIC90 in assay [1] (Klebsiella pneumoniae) and in assay [2] (Klebsiella pneumoniae) was 2 µg/mL (≈ 3.41 µM) each time. In addition, the “S (%), susceptible isolates” value in assay [1] (setting [9]) is recorded as 90.2%; in assay [1] (Total MDR K. pneumoniae isolates (n = 102), listed as tigecycline), ~90%; in assay [2] (setting [10]), 96.0%.

For the molecule `NC[C@H]1O[C@H](O[C@H]2[C@H](O)[C@@H](O[C@H]3O[C@H](CO)[C@@H](O)[C@H](N)[C@H]3O)[C@H](N)C[C@@H]2N)[C@H](N)C[C@@H]1O` [Tobramycin, tobramycin], the MIC50 in assay [1] (setting [5]) and in assay [2] (setting [7]) was 32 µg/mL (≈ 68.4 µM) in each case. In addition, the results for the MIC90 in assay [1] (setting [6]), in assay [1] (setting [9]) and in assay [2] (setting [8]) were ≥ 64 µg/mL, ≥64 µg/mL and ≥ 64 µg/mL, respectively. In addition, the “S (%), susceptible isolates” value in assay [1] (setting [9]) is recorded as 10.8%; in assay [2] (setting [10]), 8.0%; in assay [2] (K. pneumoniae producing KPC (n = 25), listed as tobramycin), 8%.

Values taken from patent US20190374563A1, “TREATMENT OF KLEBSIELLA PNEUMONIAE INFECTIONS WITH ANTIBACTERIAL AMINOGLYCOSIDE COMPOUNDS” (Achaogen, Inc., priority 2009, published 2019).
